Consider two compounds from PMC7266154 (RNA, 2020).

For this test, the system named is protein synthesis in E. coli S30 extract. The format is biochemical, Escherichia coli. Conditions: read-out: IC50, inhibition of firefly luciferase synthesis, 37°C, 30 min, luciferase activity, three independent measurements.

Take `CC[C@H]1OC(=O)[C@H](C)[C@@H](O[C@H]2C[C@@](C)(OC)[C@@H](O)[C@H](C)O2)[C@H](C)[C@@H](O[C@@H]2O[C@H](C)C[C@H](N(C)C)[C@H]2O)[C@](C)(O)C[C@@H](C)[C@@H]2N[C@@H](COCCOC)O[C@H]([C@H]2C)[C@]1(C)O` [DIR, dirithromycin]: the IC50 turned out to be 190 ± 20 nM.
To `CC[C@H]1OC(=O)[C@H](C)[C@@H](O[C@H]2C[C@@](C)(OC)[C@@H](O)[C@H](C)O2)[C@H](C)[C@@H](O[C@@H]2O[C@H](C)C[C@H](N(C)C)[C@H]2O)[C@](C)(O)C[C@@H](C)C(=O)[C@H](C)[C@@H](O)[C@]1(C)O` [ERY, erythromycin] belongs 320 ± 20 nM.

As usually defined, the IC50 is the concentration at which inhibition is half-maximal.
